Calls of active or inactive are those of the source. No cut-off for these calls is given here.
What was measured:
[1] = biological target: T1, Egl nine homolog 1 (Homo sapiens, UniProt Q9GZT9)
Target sequence in this assay (Q9GZT9 2-426 limits assumed): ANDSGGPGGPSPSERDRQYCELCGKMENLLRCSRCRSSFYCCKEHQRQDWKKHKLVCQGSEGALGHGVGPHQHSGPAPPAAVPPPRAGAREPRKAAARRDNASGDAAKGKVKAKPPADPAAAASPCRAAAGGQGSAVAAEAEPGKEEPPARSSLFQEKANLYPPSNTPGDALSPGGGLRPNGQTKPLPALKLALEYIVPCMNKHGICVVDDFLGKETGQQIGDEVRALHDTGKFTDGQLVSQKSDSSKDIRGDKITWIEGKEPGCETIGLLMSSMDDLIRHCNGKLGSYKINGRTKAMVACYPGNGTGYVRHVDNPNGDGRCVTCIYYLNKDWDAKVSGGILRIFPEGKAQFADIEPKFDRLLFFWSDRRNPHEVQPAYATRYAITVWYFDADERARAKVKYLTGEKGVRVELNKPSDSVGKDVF

[2] = biological target: T2, Amine oxidase [flavin-containing] A (Homo sapiens, UniProt P21397)
T2 sequence (P21397 whole entry): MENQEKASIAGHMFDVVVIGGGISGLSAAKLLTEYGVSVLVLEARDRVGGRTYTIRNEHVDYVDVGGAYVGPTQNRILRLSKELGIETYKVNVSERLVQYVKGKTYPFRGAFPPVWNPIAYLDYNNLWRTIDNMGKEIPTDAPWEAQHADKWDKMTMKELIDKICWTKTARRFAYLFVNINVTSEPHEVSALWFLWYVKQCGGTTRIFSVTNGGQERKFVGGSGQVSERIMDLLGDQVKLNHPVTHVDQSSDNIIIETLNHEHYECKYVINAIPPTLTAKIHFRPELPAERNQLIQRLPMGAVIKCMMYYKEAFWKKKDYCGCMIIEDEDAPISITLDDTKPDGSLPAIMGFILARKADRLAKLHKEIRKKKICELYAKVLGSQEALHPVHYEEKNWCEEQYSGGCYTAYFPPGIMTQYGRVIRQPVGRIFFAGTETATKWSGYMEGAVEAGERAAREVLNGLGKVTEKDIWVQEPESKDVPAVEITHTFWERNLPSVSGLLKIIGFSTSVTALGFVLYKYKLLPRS

[3] = biological target: T3, Amine oxidase [flavin-containing] B (Homo sapiens, UniProt P27338)
T3 sequence (P27338 whole entry): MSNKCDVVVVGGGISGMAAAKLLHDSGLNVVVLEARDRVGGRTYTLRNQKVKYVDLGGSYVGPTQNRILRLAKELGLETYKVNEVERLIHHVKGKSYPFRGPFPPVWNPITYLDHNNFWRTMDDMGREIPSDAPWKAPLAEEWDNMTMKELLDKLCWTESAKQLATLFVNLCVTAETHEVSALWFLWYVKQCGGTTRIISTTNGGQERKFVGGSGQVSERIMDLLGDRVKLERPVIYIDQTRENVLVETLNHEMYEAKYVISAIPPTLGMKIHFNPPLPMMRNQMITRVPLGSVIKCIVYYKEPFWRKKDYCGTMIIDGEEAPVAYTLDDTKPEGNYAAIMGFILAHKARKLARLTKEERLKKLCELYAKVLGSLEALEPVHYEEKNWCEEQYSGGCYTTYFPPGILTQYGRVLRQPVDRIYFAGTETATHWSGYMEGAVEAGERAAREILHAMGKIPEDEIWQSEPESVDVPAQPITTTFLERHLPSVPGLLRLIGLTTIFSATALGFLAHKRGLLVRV

[4] = biological target: T4, Lysine-specific demethylase 2A (Homo sapiens, UniProt Q9Y2K7)
T4 sequence (Q9Y2K7 whole entry): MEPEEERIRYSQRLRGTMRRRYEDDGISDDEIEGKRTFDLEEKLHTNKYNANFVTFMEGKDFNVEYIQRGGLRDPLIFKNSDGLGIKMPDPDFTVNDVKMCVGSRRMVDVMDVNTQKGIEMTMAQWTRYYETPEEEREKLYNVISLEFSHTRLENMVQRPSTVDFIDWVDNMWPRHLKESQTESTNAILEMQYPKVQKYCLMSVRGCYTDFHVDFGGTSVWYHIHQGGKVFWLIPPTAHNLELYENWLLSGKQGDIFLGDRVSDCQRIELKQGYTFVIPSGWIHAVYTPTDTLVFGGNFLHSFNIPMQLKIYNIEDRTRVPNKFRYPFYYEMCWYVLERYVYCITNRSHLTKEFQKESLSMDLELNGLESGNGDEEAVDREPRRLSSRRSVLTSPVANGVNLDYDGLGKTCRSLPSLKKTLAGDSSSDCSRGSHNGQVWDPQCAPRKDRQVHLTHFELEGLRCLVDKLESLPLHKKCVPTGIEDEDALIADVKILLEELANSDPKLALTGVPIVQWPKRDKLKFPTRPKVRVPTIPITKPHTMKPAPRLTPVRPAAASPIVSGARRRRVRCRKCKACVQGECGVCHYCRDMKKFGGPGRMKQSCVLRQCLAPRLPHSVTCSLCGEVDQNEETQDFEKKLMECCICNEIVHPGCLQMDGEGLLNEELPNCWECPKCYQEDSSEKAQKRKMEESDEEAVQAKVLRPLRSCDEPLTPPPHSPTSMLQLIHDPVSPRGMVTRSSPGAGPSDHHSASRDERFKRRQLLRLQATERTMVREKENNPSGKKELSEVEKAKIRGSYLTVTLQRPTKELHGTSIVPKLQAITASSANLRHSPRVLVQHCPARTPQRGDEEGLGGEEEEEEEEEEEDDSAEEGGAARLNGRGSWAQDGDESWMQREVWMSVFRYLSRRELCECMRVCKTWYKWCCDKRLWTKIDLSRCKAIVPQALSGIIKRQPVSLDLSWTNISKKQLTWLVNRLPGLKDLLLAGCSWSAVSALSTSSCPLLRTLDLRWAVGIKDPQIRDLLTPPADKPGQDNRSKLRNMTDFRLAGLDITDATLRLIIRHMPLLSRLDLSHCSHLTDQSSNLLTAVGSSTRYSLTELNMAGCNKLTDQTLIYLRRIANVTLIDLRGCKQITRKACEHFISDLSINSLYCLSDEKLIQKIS

[5] = biological target: T5, Lysine-specific demethylase 4A (Homo sapiens, UniProt O75164)
T5 sequence (O75164 whole entry): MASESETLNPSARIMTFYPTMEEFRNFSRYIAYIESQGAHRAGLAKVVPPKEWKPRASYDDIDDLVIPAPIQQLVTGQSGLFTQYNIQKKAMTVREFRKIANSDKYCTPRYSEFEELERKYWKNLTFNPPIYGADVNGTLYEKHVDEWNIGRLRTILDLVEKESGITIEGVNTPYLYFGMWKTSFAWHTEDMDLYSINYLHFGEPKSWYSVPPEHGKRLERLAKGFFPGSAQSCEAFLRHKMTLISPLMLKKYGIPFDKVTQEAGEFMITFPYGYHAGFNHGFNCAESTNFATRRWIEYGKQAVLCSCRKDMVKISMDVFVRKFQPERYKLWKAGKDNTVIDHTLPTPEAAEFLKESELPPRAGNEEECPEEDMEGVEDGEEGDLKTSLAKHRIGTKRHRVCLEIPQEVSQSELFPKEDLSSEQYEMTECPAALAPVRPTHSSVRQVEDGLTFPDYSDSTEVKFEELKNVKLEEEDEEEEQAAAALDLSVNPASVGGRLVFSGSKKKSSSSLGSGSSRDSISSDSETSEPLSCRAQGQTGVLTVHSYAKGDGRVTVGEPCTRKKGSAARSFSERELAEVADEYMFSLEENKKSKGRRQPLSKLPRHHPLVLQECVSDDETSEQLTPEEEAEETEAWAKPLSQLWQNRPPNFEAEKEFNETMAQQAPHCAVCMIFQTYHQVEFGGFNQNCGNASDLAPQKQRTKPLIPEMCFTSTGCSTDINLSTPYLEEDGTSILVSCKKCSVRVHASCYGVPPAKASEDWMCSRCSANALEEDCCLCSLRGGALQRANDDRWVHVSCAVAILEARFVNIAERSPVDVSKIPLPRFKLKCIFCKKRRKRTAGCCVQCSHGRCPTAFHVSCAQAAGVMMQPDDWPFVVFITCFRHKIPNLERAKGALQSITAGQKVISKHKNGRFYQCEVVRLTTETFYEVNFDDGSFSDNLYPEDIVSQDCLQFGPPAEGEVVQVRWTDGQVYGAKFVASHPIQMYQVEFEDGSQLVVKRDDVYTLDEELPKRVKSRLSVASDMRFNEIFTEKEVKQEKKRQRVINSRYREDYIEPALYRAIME

[6] = biological target: Hypoxia-inducible factor 1-alpha inhibitor (Homo sapiens, UniProt Q9NWT6)
[7] = biological target: T1, Egl nine homolog 1; remark: listed apart in the source
Target sequence in this assay (Q9GZT9 whole entry): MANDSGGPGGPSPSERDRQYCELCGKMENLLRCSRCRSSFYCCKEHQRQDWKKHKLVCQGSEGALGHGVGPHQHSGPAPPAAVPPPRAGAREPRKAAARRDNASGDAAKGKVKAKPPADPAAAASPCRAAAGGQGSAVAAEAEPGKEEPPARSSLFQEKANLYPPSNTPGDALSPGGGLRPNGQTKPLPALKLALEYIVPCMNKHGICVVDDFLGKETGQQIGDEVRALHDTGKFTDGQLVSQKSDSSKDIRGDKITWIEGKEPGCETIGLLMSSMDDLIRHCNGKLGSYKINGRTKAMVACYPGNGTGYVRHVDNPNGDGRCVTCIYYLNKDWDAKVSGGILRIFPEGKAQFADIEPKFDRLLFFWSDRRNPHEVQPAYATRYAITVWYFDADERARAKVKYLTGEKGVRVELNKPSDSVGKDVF

[8] = biological target: Prolyl hydroxylase EGLN2 (Homo sapiens, UniProt Q96KS0)
[9] = biological target: Prolyl hydroxylase EGLN3 (Homo sapiens, UniProt Q9H6Z9); test: Inhibition of PHD3
[10] = biological target: Histone lysine demethylase PHF8 (Homo sapiens, UniProt Q9UPP1); test: Inhibition of KDM7B
[11] = biological target: T6, Lysine-specific demethylase 4C (Homo sapiens, UniProt Q9H3R0)
T6 sequence (Q9H3R0 whole entry): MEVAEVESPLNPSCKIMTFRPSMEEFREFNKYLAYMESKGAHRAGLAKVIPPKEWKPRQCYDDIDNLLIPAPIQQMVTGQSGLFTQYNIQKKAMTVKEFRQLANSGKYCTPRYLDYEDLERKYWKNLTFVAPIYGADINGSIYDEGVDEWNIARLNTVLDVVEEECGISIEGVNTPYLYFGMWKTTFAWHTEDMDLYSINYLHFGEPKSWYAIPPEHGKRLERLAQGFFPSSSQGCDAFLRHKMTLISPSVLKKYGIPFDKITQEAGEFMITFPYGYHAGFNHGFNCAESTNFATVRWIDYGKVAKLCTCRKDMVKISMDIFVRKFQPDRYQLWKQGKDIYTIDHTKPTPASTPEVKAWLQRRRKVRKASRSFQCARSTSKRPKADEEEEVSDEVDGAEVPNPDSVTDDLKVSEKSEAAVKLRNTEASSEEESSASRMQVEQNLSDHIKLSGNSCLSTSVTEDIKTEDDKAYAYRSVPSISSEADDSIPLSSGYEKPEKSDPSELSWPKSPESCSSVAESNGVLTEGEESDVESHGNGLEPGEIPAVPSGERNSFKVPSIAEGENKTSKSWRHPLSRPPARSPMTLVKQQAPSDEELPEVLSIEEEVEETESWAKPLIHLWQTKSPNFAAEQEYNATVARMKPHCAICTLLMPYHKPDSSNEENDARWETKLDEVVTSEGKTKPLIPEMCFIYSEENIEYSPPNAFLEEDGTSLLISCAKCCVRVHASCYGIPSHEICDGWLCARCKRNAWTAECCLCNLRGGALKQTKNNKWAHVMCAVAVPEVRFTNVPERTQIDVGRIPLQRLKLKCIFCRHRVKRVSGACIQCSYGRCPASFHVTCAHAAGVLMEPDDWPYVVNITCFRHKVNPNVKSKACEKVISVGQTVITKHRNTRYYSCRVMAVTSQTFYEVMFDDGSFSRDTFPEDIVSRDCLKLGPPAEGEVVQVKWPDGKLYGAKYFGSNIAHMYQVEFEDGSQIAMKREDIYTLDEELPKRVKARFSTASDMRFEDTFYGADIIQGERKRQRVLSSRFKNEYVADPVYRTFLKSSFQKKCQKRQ

[12] = biological target: Lysine-specific demethylase 6B (Homo sapiens, UniProt O15054); test: Inhibition of KDM6B
Sequence of Lysine-specific demethylase 6B (O15054 whole entry): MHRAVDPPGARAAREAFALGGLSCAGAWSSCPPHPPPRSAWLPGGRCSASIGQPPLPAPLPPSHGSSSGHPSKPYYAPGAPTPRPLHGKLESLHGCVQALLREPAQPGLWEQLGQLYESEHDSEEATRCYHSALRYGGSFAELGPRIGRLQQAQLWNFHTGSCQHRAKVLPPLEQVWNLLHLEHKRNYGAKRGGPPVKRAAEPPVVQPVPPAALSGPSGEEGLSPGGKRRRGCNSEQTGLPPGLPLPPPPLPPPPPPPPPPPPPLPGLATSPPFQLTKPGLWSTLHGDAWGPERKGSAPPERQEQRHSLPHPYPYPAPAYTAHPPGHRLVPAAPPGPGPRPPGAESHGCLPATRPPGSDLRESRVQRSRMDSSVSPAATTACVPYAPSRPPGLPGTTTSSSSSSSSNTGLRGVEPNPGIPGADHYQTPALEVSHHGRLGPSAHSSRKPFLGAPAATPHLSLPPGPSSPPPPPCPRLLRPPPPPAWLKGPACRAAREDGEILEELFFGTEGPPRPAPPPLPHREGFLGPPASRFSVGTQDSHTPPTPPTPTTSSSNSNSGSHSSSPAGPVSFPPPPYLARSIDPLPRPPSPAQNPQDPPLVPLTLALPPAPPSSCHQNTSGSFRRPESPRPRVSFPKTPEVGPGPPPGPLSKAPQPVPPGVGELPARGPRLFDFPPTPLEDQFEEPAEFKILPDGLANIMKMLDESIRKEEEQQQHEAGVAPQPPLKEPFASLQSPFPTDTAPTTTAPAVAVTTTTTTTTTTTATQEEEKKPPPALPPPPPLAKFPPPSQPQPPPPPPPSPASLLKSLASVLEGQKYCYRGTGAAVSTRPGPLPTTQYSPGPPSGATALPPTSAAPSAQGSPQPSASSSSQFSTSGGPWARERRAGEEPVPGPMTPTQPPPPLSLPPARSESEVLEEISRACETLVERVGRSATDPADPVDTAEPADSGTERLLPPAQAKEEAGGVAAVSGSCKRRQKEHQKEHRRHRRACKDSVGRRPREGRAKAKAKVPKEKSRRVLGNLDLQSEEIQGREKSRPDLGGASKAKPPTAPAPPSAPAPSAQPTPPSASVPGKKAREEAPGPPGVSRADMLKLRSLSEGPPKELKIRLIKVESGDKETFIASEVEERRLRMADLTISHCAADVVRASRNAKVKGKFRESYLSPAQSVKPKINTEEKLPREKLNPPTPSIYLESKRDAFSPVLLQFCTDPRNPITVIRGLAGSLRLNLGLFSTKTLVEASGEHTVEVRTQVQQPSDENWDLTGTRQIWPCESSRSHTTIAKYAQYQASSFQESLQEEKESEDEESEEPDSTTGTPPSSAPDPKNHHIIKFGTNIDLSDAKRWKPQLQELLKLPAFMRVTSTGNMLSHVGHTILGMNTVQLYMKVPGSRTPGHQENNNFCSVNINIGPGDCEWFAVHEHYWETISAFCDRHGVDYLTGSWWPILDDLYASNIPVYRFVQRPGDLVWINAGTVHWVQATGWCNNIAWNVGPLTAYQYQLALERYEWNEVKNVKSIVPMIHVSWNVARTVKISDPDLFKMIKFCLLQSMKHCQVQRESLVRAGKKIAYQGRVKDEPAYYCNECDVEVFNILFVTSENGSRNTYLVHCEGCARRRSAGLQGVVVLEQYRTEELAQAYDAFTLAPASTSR

Sequence of Hypoxia-inducible factor 1-alpha inhibitor (Q9NWT6 whole entry): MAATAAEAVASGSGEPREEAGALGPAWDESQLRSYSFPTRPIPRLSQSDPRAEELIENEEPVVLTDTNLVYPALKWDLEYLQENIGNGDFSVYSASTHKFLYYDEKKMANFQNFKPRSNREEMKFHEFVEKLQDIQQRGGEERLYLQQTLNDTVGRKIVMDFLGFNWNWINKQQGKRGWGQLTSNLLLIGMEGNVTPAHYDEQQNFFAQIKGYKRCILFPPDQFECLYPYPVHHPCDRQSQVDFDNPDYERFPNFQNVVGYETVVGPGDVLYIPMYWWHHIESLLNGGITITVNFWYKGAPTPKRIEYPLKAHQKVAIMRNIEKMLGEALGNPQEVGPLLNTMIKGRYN
Sequence of Prolyl hydroxylase EGLN3 (Q9H6Z9 whole entry): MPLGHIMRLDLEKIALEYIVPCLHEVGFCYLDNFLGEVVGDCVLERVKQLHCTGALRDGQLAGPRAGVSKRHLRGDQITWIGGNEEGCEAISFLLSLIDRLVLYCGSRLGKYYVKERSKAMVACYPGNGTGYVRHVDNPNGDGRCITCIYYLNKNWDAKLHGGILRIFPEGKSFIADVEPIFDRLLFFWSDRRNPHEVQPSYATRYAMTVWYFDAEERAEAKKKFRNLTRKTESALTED
Sequence of Histone lysine demethylase PHF8 (Q9UPP1 whole entry): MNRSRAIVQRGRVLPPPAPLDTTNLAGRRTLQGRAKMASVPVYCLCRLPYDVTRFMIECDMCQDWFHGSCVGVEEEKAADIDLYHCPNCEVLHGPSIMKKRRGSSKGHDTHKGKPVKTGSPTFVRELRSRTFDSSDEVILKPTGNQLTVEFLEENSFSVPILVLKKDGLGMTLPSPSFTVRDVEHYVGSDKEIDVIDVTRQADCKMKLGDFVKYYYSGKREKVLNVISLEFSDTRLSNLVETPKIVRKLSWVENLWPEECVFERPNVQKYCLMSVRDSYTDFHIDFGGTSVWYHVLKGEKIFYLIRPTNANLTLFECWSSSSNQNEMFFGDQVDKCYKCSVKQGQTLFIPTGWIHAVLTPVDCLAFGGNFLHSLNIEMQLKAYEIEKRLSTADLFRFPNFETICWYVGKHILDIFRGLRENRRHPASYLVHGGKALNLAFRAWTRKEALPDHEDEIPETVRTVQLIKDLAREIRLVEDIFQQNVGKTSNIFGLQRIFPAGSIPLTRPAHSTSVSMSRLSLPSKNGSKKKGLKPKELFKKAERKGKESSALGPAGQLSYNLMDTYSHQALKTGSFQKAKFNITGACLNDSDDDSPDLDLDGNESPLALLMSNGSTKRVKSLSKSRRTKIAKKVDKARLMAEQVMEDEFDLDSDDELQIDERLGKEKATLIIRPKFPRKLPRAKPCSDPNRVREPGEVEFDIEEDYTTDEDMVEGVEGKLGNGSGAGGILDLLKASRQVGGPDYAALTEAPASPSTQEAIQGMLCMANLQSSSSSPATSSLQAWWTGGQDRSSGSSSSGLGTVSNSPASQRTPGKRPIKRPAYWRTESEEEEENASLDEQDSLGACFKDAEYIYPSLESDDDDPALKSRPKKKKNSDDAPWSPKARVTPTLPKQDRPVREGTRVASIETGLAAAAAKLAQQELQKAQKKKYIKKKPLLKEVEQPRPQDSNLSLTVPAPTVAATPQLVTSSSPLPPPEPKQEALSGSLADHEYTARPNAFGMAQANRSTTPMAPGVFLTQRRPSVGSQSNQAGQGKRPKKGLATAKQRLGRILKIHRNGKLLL
Sequence of Prolyl hydroxylase EGLN2 (Q96KS0 whole entry): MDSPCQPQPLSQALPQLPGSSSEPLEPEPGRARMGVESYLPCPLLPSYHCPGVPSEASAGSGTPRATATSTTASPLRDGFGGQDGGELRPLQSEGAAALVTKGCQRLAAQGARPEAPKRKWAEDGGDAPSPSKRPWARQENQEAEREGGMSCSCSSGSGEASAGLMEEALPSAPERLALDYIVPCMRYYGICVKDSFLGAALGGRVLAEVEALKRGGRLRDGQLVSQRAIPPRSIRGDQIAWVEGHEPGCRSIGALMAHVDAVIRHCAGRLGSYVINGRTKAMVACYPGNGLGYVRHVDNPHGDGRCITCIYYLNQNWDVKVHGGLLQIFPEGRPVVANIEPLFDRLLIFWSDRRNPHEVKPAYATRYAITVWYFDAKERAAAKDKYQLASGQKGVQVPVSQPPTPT

O=C(O)C(=O)N[C@H](Cc1ccc(OS(=O)(=O)c2ccc(Br)cc2)cc1)C(=O)O
inhibition [1]: inactive

NC1CC1c1cc(F)cc(F)c1OCc1ccccc1 (configuration not stated)
Ki [2]: 110 µM
Ki [3]: 17 µM

NC1CC1c1cccc(OCC[C@H](NC(=O)c2ccccc2)C(=O)NCc2ccccc2)c1 (some centres not stated)
Ki [2]: 230 µM
Ki [3]: 740 µM

N[C@@H]1C[C@H]1c1ccc(OCC[C@H](NC(=O)c2ccccc2)C(=O)NCc2ccccc2)cc1
Ki [2]: 250 µM
Ki [3]: 1700 µM

O=C(O)CC[C@@H](O)C(=O)O
IC50 [4]: 106 µM

O=C(O)CC[C@H](O)C(=O)O
IC50 [4]: 48 µM

S=C(SSC(=S)N1CCCC1)N1CCCC1 [BIS(PYRROLIDINYLTHIOCARBONYL)DISULFIDE]
IC50 [5]: 3.3 µM

NC1CC1c1ccc(NC(=O)C(Cc2ccccc2)NC(=O)OCc2ccccc2)cc1 (configuration not stated)
Ki [3]: > 133 µM

O=C(O)c1ccnc2c(O)cccc12
IC50 [6]: 21 µM
IC50 [7]: 14 µM

O=C(O)/C=C/C(=O)N(O)CCCCNCc1ccc(COC(=O)Nc2cccc3ccccc23)cc1
IC50 [6]: 22 µM
IC50 [8]: 54 µM
IC50 [9]: 31 µM
IC50 [7]: 83 µM
IC50 [10]: 10 µM
IC50 [11]: 3.4 µM
IC50 [12]: 43 µM
IC50 [5]: 4.3 µM

O=C(O)c1ccnc(C(=O)O)c1Nc1ccccc1F
IC50 [7]: > 400 µM

Reference: ChEMBL document CHEMBL1938384, “Lysine demethylases inhibitors” (J Med Chem, 2011)
